One compound from patent publication US20120115872A1, “COMBINATION OF A SODIUM-PROTON EXCHANGER INHIBITOR AND OF A DIHYDRO-1,3,5-TRIAZINE AMINE DERIVATIVE” (Merck Patent GMBH, priority 2009, published 2012) can be followed below.

Type in all cases: cell-based
For test [1], the system named is mitochondrial transient permeability pore (TPP). The test can be described thus: Opening of the mitochondrial transient permeability pore (TPP). The conditions noted are these: during ischaemia and/or reperfusion events.
For test [2], the system named is human dermal microvascular endothelial cell line HMEC-1. The test can be described thus: Mitochondrial membrane potential (TMRM probe, confocal microscopy) in HMEC-1 cells under ischaemia/reperfusion. As to the method:
The immortalized human dermal microvascular endothelial cell line HMEC-1 was used. […] They were analysed by confocal microscopy before the treatment, after 60 minutes of ischaemia, after 90 minutes of reperfusion and after 120 minutes of reperfusion.

For test [3], the system named is complex I of the endothelial cell respiratory chain. The test can be described thus: Production of ROS by complex I of the endothelial cell respiratory chain. The conditions noted are these: endothelial cells; by inhibiting reverse electron flow.

For `CC1N=C(N)NC(N(C)C)=N1` (stereo not shown) [E 008], in test [1], the “opening of the mitochondrial transient permeability pore (TPP)” value is on record as “reduce the opening of the mitochondrial transient permeability pore (TPP)”. In test [2] (HMEC-1, 30 min pre-incubation, 60 min ischaemia, reperfusion 90 and 120 min, TMRM 30 nM), the “mitochondrial membrane potential after reperfusion” value is recorded as “protected against the damage induced by the reperfusion”. In addition, in test [2] (during ischaemia and/or reperfusion events), the “loss of potential of the mitochondrial membrane” value is recorded as “prevent the loss of potential of the mitochondrial membrane”. Moreover, in test [3], the “production of ROS by complex I of the respiratory chain” value was “reduce the production of ROS”.
